This assay in a line: Inhibition of human recombinant ADAM17 using Mca-PLAQAV-Dpa-RSSSR-NH2.

As usually defined, the IC50 is the concentration that gives 50% inhibition. Turning to `CC(C)C[C@H](CC(=O)NO)C(=O)N[C@@H](Cc1ccccc1)C(=O)N[C@@H](CCCCNC(=O)c1ccc(F)cc1)C(N)=O`, the IC50 worked out at 25 nM.
`CC(C)C[C@H](CC(=O)NO)C(=O)N[C@@H](Cc1ccccc1)C(=O)N[C@@H](CCCCN)C(N)=O`: the IC50 was found to be 5.7 nM.

The values above are taken from BindingDB's records for doi:10.1016/j.bmc.2014.11.013 (University Medical Center Groningen, 2014).
